Laboratory results reported in patent US9115065B2 (priority 2004, dated 2015).
Entries after “also recorded” stand apart in the source; their conditions may differ. Like-named read-outs stand apart in the source and are kept apart here.

Tests used:
Guanarito [1] = assay: microbe, parasite or virus in culture; format: cell-based; settings: Mammarenavirus guanaritoense, HEK-293T, read-out: Antiviral activity vs. pseudotyped viruses: Guanarito
VSV = assay: microbe, parasite or virus in culture; format: cell-based; settings: Vesicular stomatitis virus, HEK-293T, read-out: VSV (μM) (negative control)
Tacaribe = assay: microbe, parasite or virus in culture; format: cell-based; settings: Mammarenavirus tacaribeense, HEK-293T, read-out: Antiviral activity vs. pseudotyped viruses: Tacaribe
Machupo [2] = assay: microbe, parasite or virus in culture; format: cell-based; settings: Mammarenavirus machupoense, HEK-293T, read-out: Antiviral activity vs. pseudotyped viruses: Machupo
Tacaribe virus [3] = assay: microbe, parasite or virus in culture; format: cell-based
icd-GPC [4] = format: binding, Junin virus
Junín [5] = assay: microbe, parasite or virus in culture; format: cell-based, Junin virus; settings: Mammarenavirus juninense, HEK-293T, read-out: Antiviral activity vs. pseudotyped viruses: Junín
JUNV GPC = JUNV GPC (Junin mammarenavirus, UniProt P26313); assay: cell-based; set-up: species or system Junin virus
icd-GPC [6] = format: binding, Junin virus; remark: listed apart in the source
[7] = mouse, in vivo, ip, 100 mg/kg/day
[8] = in vivo
Tacaribe virus [9] = tested on: Tacaribe virus; set-up: species or system BALB/c mice; settings: mouse, in vivo
Machupo [10] = format: cell-based, Machupo virus; settings: read-out: Machupo (Plaque reduction) EC50
Junín [11] = format: cell-based, Junin virus; settings: read-out: Junin (Plaque reduction) EC50
Tacaribe virus [12] = format: cell-based; settings: read-out: Tacaribe (Plaque reduction) EC50
[13] = tested on: drug resistant Tacaribe mutants; format: cell-based, Tacaribe virus
[14] = tested on: S. typhimurium tester strains TA7007 and TA7006 and TA98
[15] = in vivo; remark: listed apart in the source
Guanarito [16] = format: cell-based, Guanarito virus; settings: read-out: Guanarito (Plaque reduction) EC50

Chain of JUNV GPC (P26313 2-58 limits assumed): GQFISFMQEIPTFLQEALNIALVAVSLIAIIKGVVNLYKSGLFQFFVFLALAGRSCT
Chain of JUNV GPC (P26313 59-251 partner limits assumed): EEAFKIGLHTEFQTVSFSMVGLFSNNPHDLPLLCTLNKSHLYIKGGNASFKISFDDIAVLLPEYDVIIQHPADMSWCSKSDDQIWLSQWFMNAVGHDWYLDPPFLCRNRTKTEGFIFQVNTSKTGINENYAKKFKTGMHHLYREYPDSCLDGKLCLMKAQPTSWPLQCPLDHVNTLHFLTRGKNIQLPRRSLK
Chain of JUNV GPC (P26313 252-485 limits assumed): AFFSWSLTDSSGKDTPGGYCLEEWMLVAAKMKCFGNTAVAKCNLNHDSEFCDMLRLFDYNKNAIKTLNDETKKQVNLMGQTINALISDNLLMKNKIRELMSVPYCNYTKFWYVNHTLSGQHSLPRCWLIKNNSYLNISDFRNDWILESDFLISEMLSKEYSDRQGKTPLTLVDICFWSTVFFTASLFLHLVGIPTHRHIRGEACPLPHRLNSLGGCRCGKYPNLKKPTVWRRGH

| Compound | EC50 (Guanarito [1]) | EC50 (VSV) | EC50 (Tacaribe) | EC50 (Machupo [2]) | other results |
| --- | --- | --- | --- | --- | --- |
| CCC(NC(=O)NNS(=O)(=O)c1c(C)cc(C)cc1C)(C(F)(F)F)C(F)(F)F [Compound 99, 1-[1,1-bis(trifluoromethyl)propyl]-3-[(2,4,6-trimethylphenyl)sulfonylamino] urea] | < 1000 nM | > 30 µM | < 1000 nM | < 1000 nM |  |
| CCC(NC(=O)NNS(=O)(=O)c1ccc(C(C)(C)C)cc1)(C(F)(F)F)C(F)(F)F [Compound 100, 1-[1,1-bis(trifluoromethyl)propyl]-3-[(4-tert-butylphenyl)sulfonylamino]urea] | < 1000 nM | 19.7 µM | < 1000 nM | < 1000 nM |  |
| CCC(NC(=O)NNS(=O)(=O)c1cc(OC)ccc1OC)(C(F)(F)F)C(F)(F)F [Compound 101, 1-[1,1-bis(trifluoromethyl)propyl]-3-[(2,5-dimethoxyphenyl)sulfonylamino] urea] | < 1000 nM | > 30 µM | < 1000 nM | < 1000 nM |  |
| CCC(NC(=O)NNS(=O)(=O)c1ccc2ccccc2c1)(C(F)(F)F)C(F)(F)F [Compound 102, 1-[1,1-bis(trifluoromethyl)propyl]-3-(2-naphthylsulfonylamino)urea] | < 1000 nM | > 20 µM | < 1000 nM | < 1000 nM |  |
| CCC(NC(=O)NNS(=O)(=O)c1ccc(C(C)C)cc1)(C(F)(F)F)C(F)(F)F [Compound 103, 1-[1,1-bis(trifluoromethyl)propyl]-3-[(4-isopropylphenyl)sulfonylamino] urea] | < 1000 nM | > 20 µM | < 1000 nM | < 1000 nM |  |
| CCC(NC(=O)NNS(=O)(=O)c1cc(Cl)ccc1OC)(C(F)(F)F)C(F)(F)F [Compound 104, 1-[1,1-bis(trifluoromethyl)propyl]-3-[(5-chloro-2-methoxy-phenyl)sulfonylamino]urea] | < 1000 nM | > 30 µM | < 1000 nM | < 1000 nM |  |
| CCC(NC(=O)NNS(=O)(=O)c1ccccc1-c1ccccc1)(C(F)(F)F)C(F)(F)F [Compound 105, 1-[1,1-bis(trifluoromethyl)propyl]-3-[(2-phenylphenyl)sulfonylamino] urea] | < 1000 nM | > 30 µM | < 1000 nM | < 1000 nM |  |
| CCC(NC(=O)NNS(=O)(=O)c1ccc(Cl)c(Cl)c1)(C(F)(F)F)C(F)(F)F [Compound 106, 1-[1,1-bis(trifluoromethyl)propyl]-3-[(3,4-dichlorophenyl)sulfonylamino]urea] | < 1000 nM | > 30 µM | < 1000 nM | < 1000 nM |  |
| CCC(NC(=O)NNS(=O)(=O)c1ccc(Br)cc1)(C(F)(F)F)C(F)(F)F [Compound 107, 1-[1,1-bis(trifluoromethyl)propyl]-3-[(4-bromophenyl)sulfonylamino] urea] | < 1000 nM | > 30 µM | < 1000 nM | < 1000 nM |  |
| CCC(NC(=O)NNS(=O)(=O)c1ccc(OC(F)F)cc1)(C(F)(F)F)C(F)(F)F [Compound 108, 1-[1,1-bis(trifluoromethyl)propyl]-3-[[4-(difluoromethoxy)phenyl]sulfonyl-amino]urea] |  |  |  |  | EC50 (Tacaribe virus [3]; Mammarenavirus tacaribeense, Vero, read-out: Tacaribe (result of cytopathic effect assay)): < 1000 nM |
| CCC(NC(=O)NNS(=O)(=O)c1cc(C)cc(C)c1)(C(F)(F)F)C(F)(F)F [Compound 109, 1-[1,1-bis(trifluoromethyl)propyl]-3-[(3,5-dimethylphenyl)sulfonylamino] urea] | < 10000 nM | > 30 µM | < 1000 nM | < 10000 nM |  |
| CCC(NC(=O)NNS(=O)(=O)c1cccc2c(N(C)C)cccc12)(C(F)(F)F)C(F)(F)F [Compound 110, 1-[1,1-bis(trifluoromethyl)propyl]-3-[[5-(dimethylamino)-1-naphthyl]sulfonylamino]urea] | < 10000 nM | > 30 µM | < 1000 nM | < 1000 nM | dansyl fluorescence at 525 nm on binding to solubilized icd-GPC (icd-GPC [4]): increase in a time-dependent manner; EC50 (Junín [5]): < 1000 nM; EC50 (JUNV GPC): 600 nM |
| CCC(NC(=O)NNS(=O)(=O)c1cccc2ccccc12)(C(F)(F)F)C(F)(F)F [Compound 111, 1-[1,1-bis(trifluoromethyl)propyl]-3-(1-naphthylsulfonylamino)urea] | < 1000 nM | > 30 µM | < 1000 nM | < 1000 nM |  |
| CCC(NC(=O)NNS(=O)(=O)c1ccc2c(c1)OCCN2C)(C(F)(F)F)C(F)(F)F [Compound 112, 1-[1,1-bis(trifluoromethyl)propyl]-3-[(4-methyl-2,3-dihydro-1,4-benzoxazin-7-yl)sulfonylamino] urea] | < 10000 nM | > 30 µM | < 1000 nM | < 1000 nM |  |
| CCC(NC(=O)NNS(=O)(=O)c1cc(OCC(F)(F)F)ccc1OCC(F)(F)F)(C(F)(F)F)C(F)(F)F [Compound 113, 1-[[2,5-bis(2,2,2-trifluoroethoxy)phenyl]sulfonyl-amino]-3-[1,1-bis(trifluoromethyl)propyl]urea] | < 1000 nM | 21 µM | < 1000 nM | < 1000 nM |  |
| CCC(NC(=O)NNS(=O)(=O)c1ccc(-c2csnn2)cc1)(C(F)(F)F)C(F)(F)F [Compound 114, 1-[1,1-bis(trifluoromethyl)propyl]-3-[[4-(thiadiazol-4-yl)phenyl]sulfonylamino]urea] | < 1000 nM | > 30 µM | < 1000 nM | < 1000 nM | EC50 (Junín [5]): < 1000 nM |
| CCC(NC(=O)NNS(=O)(=O)c1cc(Br)ccc1OC)(C(F)(F)F)C(F)(F)F [Compound 115, 1-[1,1-bis(trifluoromethyl)propyl]-3-[(5-bromo-2-methoxy-phenyl)sulfonylamino]urea] | < 1000 nM | > 30 µM | < 1000 nM | < 1000 nM |  |
| CCC(NC(=O)NNS(=O)(=O)c1ccc(-c2ccccc2)cc1)(C(F)(F)F)C(F)(F)F [Compound 116, 1-[1,1-bis(trifluoromethyl)propyl]-3-[(4-phenylphenyl)sulfonylamino] urea] | < 10000 nM | > 20 µM | < 1000 nM | < 1000 nM |  |
| CC(NC(=O)Nc1ccccc1C(F)(F)F)(C(F)(F)F)C(F)(F)F [Example 97, 1-(2-Trifluoromethylphenyl)-3-(2,2,2-trifluoro-1-methyl-1-trifluoromethylethyl)-urea] |  |  |  |  | EC50 (Tacaribe virus [3]; Mammarenavirus tacaribeense, Vero, read-out: Tacaribe EC50): > 5000 nM |
| COc1ccc(-n2cnc3cc(NCc4ccc(C(C)C)cc4)ccc32)cc1 [ST-193, reference compound] |  |  |  |  | displacement of bound ST-375 from icd-GPC (icd-GPC [6]): displaced from icd-GPC in a time- and concentration-dependent manner |
| N-2-(1,1,1,3,3,3-hexafluoro-1-methylpropyl)-2-[(4-difluoromethoxyphenyl)sulfonyl]hydrazine-1-carboxamide [ST-294] |  |  |  |  | CC50 (Vero cells): > 50000 nM; tolerability [7]: well tolerated; PK (newborn mouse/IP) Cmax [8]: 2910 ng/mL; PK (newborn mouse/IP) ½ life [8]: 3 h; efficacy (survival) in Tacaribe infected newborn mice (Tacaribe virus [9]): both survival and a delay in death similar to the drug control; also recorded: significant protection against Tacaribe virus induced disease; EC50 (Machupo [10]): 300 nM; EC50 (Junín [11]): 300 nM; Tacaribe virus CPE EC50 (Tacaribe virus [3]): 0.066 µg/mL; EC50 (Tacaribe virus [3]; read-out: Tacaribe (CPE) EC50): 120 nM; EC50 (Tacaribe virus [12]): 100 nM; susceptibility of ST-336 drug resistant Tacaribe variants [13]: all of the mutants elicited cross-resistance; Genotoxicity (Ames test) [14]: negative; PK (rat/oral) ½ life [15]: 2 h; Cmax (serum levels) ([15]; rat, po): 6670 ng/mL; EC50 (Guanarito [16]): 1000 nM; displacement of bound ST-375 from icd-GPC (icd-GPC [6]): displaced from icd-GPC in a time- and concentration-dependent manner |
